Publication PMC6891331, “Virescenosides from the Holothurian-Associated Fungus Acremonium striatisporum Kmm 4401” (Marine Drugs, 2019)

target: urease (Canavalia ensiformis, UniProt P07374); assay: urease inhibition, ammonia production by indophenol method; type: biochemical
Sequence (P07374 whole entry, looked up): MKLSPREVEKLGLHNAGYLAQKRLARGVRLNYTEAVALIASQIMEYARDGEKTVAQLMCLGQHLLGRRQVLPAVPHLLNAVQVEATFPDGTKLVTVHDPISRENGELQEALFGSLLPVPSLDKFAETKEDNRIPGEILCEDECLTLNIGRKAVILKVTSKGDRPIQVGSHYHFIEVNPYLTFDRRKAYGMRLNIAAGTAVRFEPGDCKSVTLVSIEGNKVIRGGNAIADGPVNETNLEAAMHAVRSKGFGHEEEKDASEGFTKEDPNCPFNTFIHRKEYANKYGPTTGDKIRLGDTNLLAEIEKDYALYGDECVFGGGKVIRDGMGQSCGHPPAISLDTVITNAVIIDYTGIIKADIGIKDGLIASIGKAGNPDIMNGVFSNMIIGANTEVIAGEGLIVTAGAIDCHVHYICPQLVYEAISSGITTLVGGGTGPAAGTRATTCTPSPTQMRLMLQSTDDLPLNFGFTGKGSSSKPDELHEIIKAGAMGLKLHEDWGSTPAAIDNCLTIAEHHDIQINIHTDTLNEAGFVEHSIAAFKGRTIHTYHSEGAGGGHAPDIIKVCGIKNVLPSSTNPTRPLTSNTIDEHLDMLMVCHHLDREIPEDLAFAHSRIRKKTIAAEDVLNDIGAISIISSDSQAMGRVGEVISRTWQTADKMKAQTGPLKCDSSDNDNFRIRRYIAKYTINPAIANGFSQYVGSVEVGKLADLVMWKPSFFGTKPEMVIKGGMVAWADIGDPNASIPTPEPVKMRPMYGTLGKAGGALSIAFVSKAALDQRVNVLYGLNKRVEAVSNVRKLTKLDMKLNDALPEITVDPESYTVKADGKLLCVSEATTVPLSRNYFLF

First: NC(N)=S [Thiourea, reference compound]
Second: C=CC1(C)CCC2=C(CCC3C2(C)CCC(O)C3(C)CO)C1 (stereo not drawn) [compound 15, aglycon of virescenoside B]
The IC50 of the first is 5.4-fold lower: 23 µM for the first, 125 µM for the second. The first is the more potent here.

In the case of C=CC1(C)CCC2C(=CCC3C2(C)CC(O)C(O)C3(C)CO)C1 (stereo not drawn) [compound 14, aglycon of virescenoside A], the IC50 is reported as 139 µM.
